We go through 14 compounds from PubChem BioAssay AID248 (DTP/NCI, 2004).

“And” between values parts separate entries of the source, which are not always exact repeats. Equal entries are not always repeated. Toxic doses and inconclusive results are not listed.

The test system of this assay is L1210 leukemia ip in BDF1 mice, survival T/C. The experiment in a line: NCI In Vivo Anticancer Drug Screen. Data for tumor model L1210 Leukemia (intraperitoneal) in B6D2F1 (BDF1) mice. The conditions noted are these: endpoint: mean survival time, higher = longer survival. In a few lines:
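Antitumor effect is assessed in tumor-bearing animals. Survival in the compound arm is compared with a vehicle-dosed control arm and expressed as their quotient.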

The mark [1] stands for this setting: dose: 100.0 mg/kg/injection, schedule: Q04DX003 (ip), vehicle: saline.
[2] abbreviates: dose: 200.0 mg/kg/injection, schedule: Q04DX003 (ip), vehicle: saline.
Where [3] appears, read: dose: 400.0 mg/kg/injection, schedule: Q04DX003 (ip), vehicle: saline.
The mark [4] stands for this setting: dose: 50.0 mg/kg/injection, schedule: Q01DX009 (ip), vehicle: Klucel (hydroxypropylcellulose) (HPC).
[5] abbreviates: dose: 100.0 mg/kg/injection, schedule: Q04DX003 (ip), vehicle: Klucel (hydroxypropylcellulose) (HPC).
[6] abbreviates: dose: 200.0 mg/kg/injection, schedule: Q04DX003 (ip), vehicle: Klucel (hydroxypropylcellulose) (HPC).
The mark [7] stands for this setting: dose: 400.0 mg/kg/injection, schedule: Q04DX003 (ip), vehicle: Klucel (hydroxypropylcellulose) (HPC).
Where [8] appears, read: dose: 50.0 mg/kg/injection, schedule: Q01DX009 (ip), vehicle: saline with Tween-80.
[9] abbreviates: dose: 100.0 mg/kg/injection, schedule: Q01DX009 (ip), vehicle: saline with Tween-80.
Setting [10] is: dose: 100.0 mg/kg/injection, schedule: Q04DX003 (ip), vehicle: saline with Tween-80.
Where [11] appears, read: dose: 200.0 mg/kg/injection, schedule: Q01DX009 (ip), vehicle: saline with Tween-80.
The mark [12] stands for this setting: dose: 400.0 mg/kg/injection, schedule: Q01DX009 (ip), vehicle: saline with Tween-80.

For the compound `CCCCCCCCCCCCCCCCN(C)c1ccc(C=O)cc1`, the T/C was 97 % of control (dose: 100.0 mg/kg/injection, schedule: Q01DX009 (ip), vehicle: saline); 104 % of control under setting [1]; 100 % of control (dose: 200.0 mg/kg/injection, schedule: Q01DX009 (ip), vehicle: saline); 98 % of control under setting [2]; 103 % of control (dose: 400.0 mg/kg/injection, schedule: Q01DX009 (ip), vehicle: saline); 105 % of control under setting [3].
`CCCCN(CCCC)C(=S)[S-].CCCCN(CCCC)C(=S)[S-].[Zn]`: the T/C is 90 % of control (dose: 37.5 mg/kg/injection, schedule: Q01DX009 (ip), vehicle: saline); 88 % of control (dose: 75.0 mg/kg/injection, schedule: Q01DX001 (ip), vehicle: saline); 90 % of control (dose: 75.0 mg/kg/injection, schedule: Q01DX009 (ip), vehicle: saline); 98 % of control (dose: 75.0 mg/kg/injection, schedule: Q04DX003 (ip), vehicle: saline); 93 % of control (dose: 150.0 mg/kg/injection, schedule: Q01DX001 (ip), vehicle: saline); 86 % of control (dose: 150.0 mg/kg/injection, schedule: Q01DX009 (ip), vehicle: saline). Further, the T/C is, setting by setting: (dose: 150.0 mg/kg/injection, schedule: Q04DX003 (ip), vehicle: saline) 87 % of control; (dose: 300.0 mg/kg/injection, schedule: Q01DX001 (ip), vehicle: saline) 89 % of control; (dose: 300.0 mg/kg/injection, schedule: Q04DX003 (ip), vehicle: saline) 93 % of control.
Regarding `CC1(CCC(=O)/C=C/c2ccccc2)CCC/C(=C/c2ccccc2)C1=O` (stereo not drawn), the T/C (dose: 12.5 mg/kg/injection, schedule: Q01DX009 (ip), vehicle: Klucel (hydroxypropylcellulose) (HPC)) is 97 % of control; the T/C (dose: 25.0 mg/kg/injection, schedule: Q01DX009 (ip), vehicle: Klucel (hydroxypropylcellulose) (HPC)) was 101 % of control; the T/C under setting [4] was 103 % of control; the T/C under setting [5] was 91 % of control; the T/C under setting [6] was 91 % of control; the T/C under setting [7] was 91 % of control.
On to `O=C(O)C(SC(C(=O)O)c1ccccc1)c1ccccc1` (stereo not drawn), for which the T/C runs as follows: (dose: 75.0 mg/kg/injection, schedule: Q04DX003 (ip), vehicle: saline with Tween-80) 94 % of control; (dose: 100.0 mg/kg/injection, schedule: Q01DX001 (ip), vehicle: saline) 93 % of control; (dose: 150.0 mg/kg/injection, schedule: Q04DX003 (ip), vehicle: saline with Tween-80) 96 % of control; (dose: 200.0 mg/kg/injection, schedule: Q01DX001 (ip), vehicle: saline) 104 % of control; (dose: 300.0 mg/kg/injection, schedule: Q04DX003 (ip), vehicle: saline with Tween-80) 104 % of control; (dose: 400.0 mg/kg/injection, schedule: Q01DX001 (ip), vehicle: saline) 98 % of control.
For `Cc1ccc(OC/C=C/CSc2ccc(Br)cc2)cc1`, the T/C reads like this: under setting [4], 103 % of control; (dose: 75.0 mg/kg/injection, schedule: Q01DX001 (ip), vehicle: Klucel (hydroxypropylcellulose) (HPC)) 106 % of control; (dose: 100.0 mg/kg/injection, schedule: Q01DX009 (ip), vehicle: Klucel (hydroxypropylcellulose) (HPC)) 100 % of control; (dose: 150.0 mg/kg/injection, schedule: Q01DX001 (ip), vehicle: Klucel (hydroxypropylcellulose) (HPC)) 104 % of control; (dose: 200.0 mg/kg/injection, schedule: Q01DX009 (ip), vehicle: Klucel (hydroxypropylcellulose) (HPC)) 102 % of control; (dose: 300.0 mg/kg/injection, schedule: Q01DX001 (ip), vehicle: Klucel (hydroxypropylcellulose) (HPC)) 98 % of control.
For the compound `NC1=NC(c2ccc(Cl)cc2)N(c2ccc(S(=O)(=O)Nc3ncccn3)cc2)C(N)=N1` (stereo not drawn), the T/C by setting is: under setting [1], 103 % of control; under setting [2], 96 % of control; under setting [3], 100 % of control.
`N#Cc1ncc(C(Cl)(Cl)Cl)nc1Cl`: the T/C by setting is: (dose: 25.0 mg/kg/injection, schedule: Q01DX009 (ip), vehicle: saline with Tween-80) 103 % of control; (dose: 25.0 mg/kg/injection, schedule: Q04DX003 (ip), vehicle: saline with Tween-80) 100 % of control; under setting [8], 105 % of control; (dose: 50.0 mg/kg/injection, schedule: Q04DX003 (ip), vehicle: saline with Tween-80) 100 % of control; under setting [9], 105 % of control and 108 % of control; under setting [10], 106 % of control. Also, the T/C is 103 % of control under setting [11] and 110 % of control under setting [12].
Take `CCN(CC)P(=O)(N1CC1)N1CC1`: the T/C was 109 % of control (dose: 0.75 mg/kg/injection, schedule: Q01DX Z (ip), vehicle: saline); 121 % of control (dose: 1.15 mg/kg/injection, schedule: Q01DX Z (ip), vehicle: saline); 106 % of control (dose: 2.0 mg/kg/injection, schedule: Q01DX Z (ip), vehicle: saline); 124 % of control and 215 % of control (dose: 2.6 mg/kg/injection, schedule: Q01DX Z (ip), vehicle: saline); 151 % of control (dose: 4.0 mg/kg/injection, schedule: Q01DX Z (ip), vehicle: saline); 213 % of control (dose: 9.0 mg/kg/injection, schedule: Q01DX Z (ip), vehicle: saline). The T/C (dose: 14.0 mg/kg/injection, schedule: Q01DX Z (ip), vehicle: saline) was 88 % of control and 91 % of control.
As for `C1CC[N-]CC1.Oc1ccccc1C=NCCN=Cc1ccccc1O.[CH3-].[Rh+2]`, the T/C by setting is: under setting [8], 109 % of control; under setting [9], 115 % of control; under setting [10], 106 % of control; under setting [11], 91 % of control; (dose: 200.0 mg/kg/injection, schedule: Q04DX003 (ip), vehicle: saline with Tween-80) 117 % of control.
Consider `COCN(C(=O)CCl)c1c(C)cccc1C(C)(C)C`, for which the T/C was 95 % of control under setting [9], 97 % of control under setting [11] and 93 % of control under setting [12].
Regarding `O=S(=O)(Nc1ccc(Br)c2ccccc12)c1ccccc1`, the T/C by setting is: (dose: 25.0 mg/kg/injection, schedule: Q01DX001 (ip), vehicle: saline sonified) 97 % of control; (dose: 50.0 mg/kg/injection, schedule: Q01DX001 (ip), vehicle: saline sonified) 92 % of control; (dose: 100.0 mg/kg/injection, schedule: Q01DX001 (ip), vehicle: saline sonified) 92 % of control.
In the case of `CCCCN(C)/N=N/c1[nH]ncc1C(=O)OCC`, the T/C (dose: 52.0 mg/kg/injection, schedule: Q01DX009 (ip), vehicle: other) is 119 % of control; the T/C (dose: 78.0 mg/kg/injection, schedule: Q01DX009 (ip), vehicle: other) was 119 % of control; the T/C (dose: 266.0 mg/kg/injection, schedule: Q01DX007 (ip), vehicle: saline) was 154 % of control; the T/C (dose: 266.0 mg/kg/injection, schedule: Q01DX009 (ip), vehicle: other) is 168 % of control; the T/C (dose: 400.0 mg/kg/injection, schedule: Q01DX007 (ip), vehicle: saline) was 174 % of control.
As for `Clc1ccc(/C=N/Nc2nc3ccccc3s2)cc1Cl`, the T/C (dose: 40.0 mg/kg/injection, schedule: Q01DX Z (ip), vehicle: methylcellulose (MC)) was 88 % of control; the T/C (dose: 60.0 mg/kg/injection, schedule: Q01DX Z (ip), vehicle: methylcellulose (MC)) is 103 % of control; the T/C (dose: 90.0 mg/kg/injection, schedule: Q01DX Z (ip), vehicle: methylcellulose (MC)) was 94 % of control.
Regarding `CCCCCCCCCCCCCCC(S(=O)(=O)CC)S(=O)(=O)CC`, the T/C runs as follows: under setting [5], 95 % of control; under setting [6], 100 % of control; under setting [7], 90 % of control.
